Results reported in US12577232B2, “N-heterocycle substituted tryptamine derivatives and methods of using” (ENVERIC B[…] INC., priority 2024, dated 2026).
“And” between values parts separate entries of the source, which are not always exact repeats. Equal entries are not always repeated.

Assays:
5-HT2A receptor = target: T1, 5-HT2A receptor (Homo sapiens, UniProt P28223); assay: 5-HT2A receptor radioligand competition assay (SPA, [3H]ketanserin); type: binding; details: 1 nM [3H]ketanserin; membranes containing 5-HT2A; read-out: 5-HT2A, Ki
T1 construct: purchased PerkinElmer ES-313-M400UA
T1 sequence (P28223 whole entry): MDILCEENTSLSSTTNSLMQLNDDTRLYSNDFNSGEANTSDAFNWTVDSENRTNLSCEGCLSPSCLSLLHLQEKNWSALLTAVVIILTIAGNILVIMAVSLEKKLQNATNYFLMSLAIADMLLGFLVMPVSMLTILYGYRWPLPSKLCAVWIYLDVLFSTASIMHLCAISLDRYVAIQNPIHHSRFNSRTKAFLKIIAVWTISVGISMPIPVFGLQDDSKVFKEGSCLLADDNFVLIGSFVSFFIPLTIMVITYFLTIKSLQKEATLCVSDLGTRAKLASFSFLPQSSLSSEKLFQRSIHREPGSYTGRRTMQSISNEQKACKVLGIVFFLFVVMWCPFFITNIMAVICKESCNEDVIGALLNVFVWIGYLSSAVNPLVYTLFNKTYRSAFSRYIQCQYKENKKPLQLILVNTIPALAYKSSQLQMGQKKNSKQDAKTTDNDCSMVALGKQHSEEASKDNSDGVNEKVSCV
Procedure: Competition assays were performed as for 5-HT1A assays with the following differences. […] Determination of non-specific binding was carried out in the presence of […] of spiperone (S7395-250MG, Sigma-Aldrich). Equilibrium binding constant for ketanserin (Kd) was determined from saturation binding curves using the ‘one-site saturation binding analysis’ method in GraphPad PRISM software (Version 9.2.0).

[1] = system: human model (NT2) neurons; assay: Neuroplastogenicity (neurite outgrowth) assay in NT2 neurons; type: cell-based; set-up: key: a positive (+) designation indicating strong evidence of enhanced neurite outgrowth in drug-treated NT2 cells compared to vehicle-treated cells; a negative (−) designation indicating weak or no evidence of enhanced neurite outgrowth in drug-treated NT2 cells compared to vehicle-treated cells; details: 1 or 10 μM, 48 h, visual inspection vs vehicle (0.1% DMSO)
From the text: Classic psychedelics such as psilocybin and DMT show potential to treat anxiety and depression, and it has been theorized that such long-term improvements arise because these drugs rapidly and lastingly stimulate neuroplasticity (Calder and Hasler, 2023, Neuropsychopharmacol. 48:104-112). Thus, it was of interest to determine the potential of new compounds as neuroplastogens. Herein, we assess the capacity of various compounds to enhance neurite outgrowth in human model (NT2) neurons.
Human NT2/D1 precursor cells were purchased from the American Type Culture Collection (ATCC, Manassas, VA, USA). Neuronal differentiation was carried out as previously described (Roloff et al., 2015, PloS ONE 10:e0118536) with minor modifications. Firstly, NT2/D1 cells were seeded in T-25 suspension culture flasks (REF #690190, Greiner bio-one, Germany). Each flask contains a minimum of 5×10^6 cells in 10 ml of DMEM/F12 supplemented with 10% fetal bovine serum (FBS), 1% penicillin and streptomycin and 10 μM retinoic acid (RA) medium to start neuronal differentiation. The cells were cultured for 3 days in free floating medium. At the end of the incubation cells were trypsinized and collected by centrifugation, mechanically dispersed, and counted. Counted cells were seeded along Poly D-Lysine (PDL) coated cover slips (12 mm; diameter round, Fisher Scientific; GG-12-PDL) containing a minimum of 0.1×10^5 cells in culture medium without RA. The next day culture medium was replaced with RA medium containing 2% of FBS. These cells cultured for 5 days and two days later, RA medium was changed.
After cells had successfully attached and established along coverslips, the RA medium was replaced with new medium containing 2% FBS and one of the following: (1) test compound (1 or 10 μM), (2) RhoK (ROCK) inhibitor Y-27632 (1 μM) as a positive control (Dihydrochloride; Sigma-Aldrich) (Roloff et al., 2015, PloS ONE 10:e0118536); (3) DMT (1 or 10 μM) as a positive control (Calder and Hasler, 2023, Neuropsychopharmacol. 48:104-112), or (4) vehicle (0.1% DMSO) as a negative control. These cells were incubated for 48 hours under standard conditions (370C, 5% CO2). The cells cultured along coverslips were collected after 48 hours of treatment. The coverslips washed with calcium chloride and magnesium chloride-free phosphate buffered saline (PBS) pH 7.4 (Gibco, #70011-044) and fixed in paraformaldehyde (PFA) 4% in PBS (#J61899, thermoscientific) for 15 min at room temperature (RT) and washed three times with 0.01% of Triton-X100 in PBS (PBST) to remove remaining PFA and to permeabilize the cells. Non-specific binding sites were blocked with 5% of Bovine Serum Albumin (BSA) solution (#9048-46-8, Millipore) in PBST for 60 minutes at RT. Rabbit monoclonal antibody β-III-tubulin (1:5,000, ab52623, Abcam) was applied overnight (O/N) at 4° C. Next day cells are washed three times in PBST, neurons were incubated with secondary antibody Donkey anti-rabbit IgG(H+L) Alexa Fluor™ Plus488 (1:5000 #A32790, Invitrogen) for 1 hour at RT. These coverslips were mounted on Gluoromount-G™, with 4′6-diamidino-2′henylindoldihydrochloride (DAPI) (#E141818, Invitrogen). The immunofluorescence images were analyzed using an Olympus VS110 slide scanner microscope.
B-III-Tubulin immunofluorescence was quantified using ImageJ. Briefly, Corrected Total Cell Fluorescence (CTCF) was acquired for at least ˜8-10 representative cells, where CTCF=Integrated Density−[Area of selected cell*Mean Fluorescence of background]. The CTCF values, referred to herein as ‘signal intensities’, were used to calculate overall means±SD for each treatment. One-Way ANOVA was used to compare treatments. Further, the mean of each treatment was compared with the mean of the control treatment (RA-differentiated cells treated with vehicle, 0.1% DMSO) using Dunnett's multiple comparison procedure. […]

C57BL/6 mice = assay: Mouse Head Twitch Response (HTR) assay to assess hallucinogenic potential; type: in vivo; details: for mean HTR / HTR compared with the HTR response for 5-Br-DMT (one-way ANOVA, Dunnett): 3 mg/kg i.p.; for mean HTR: 0-15 min interval (preliminary screening); for HTR compared with the HTR response for 5-Br-DMT (one-way ANOVA, Dunnett): alpha 0.05; for HTR: 0-15 min (dose curve)
Procedure: All experiments were approved by the University of Calgary Animal Care and Use Committee in accordance with Canadian Council on Animal Care guidelines. C57BL/6-Elite mixed sex mice were obtained from Charles River (8 weeks old). Until the first experiment, mice were group-housed, then single-housed on a 12:12 h light/dark schedule (lights on at 07:00 hours) with ad libitum access to food and water. Before any behavioral screening, mice were handled and exposed to the testing chamber for at least 5 min each day for three successive days and habituated to the experimental room 1 h before testing. The testing chamber was cleaned with a 70% ethanol solution between experiments to eliminate odor from other mice. Drug compounds (100 mM in DMSO) were diluted in sterile excipient (10% EtOH/15% PEG400 in ddH2O) to 3 mg/kg (preliminary screening) or 0.5, 2, 4, 7, and 10 mg/kg (dose-curve analysis) and administered using intraperitoneal (i.p.) drug injections. […] HTR was analyzed during the 0-to-15-minute window following drug administration. […] Mean HTR between 10 and 5 signifies reduced hallucinogenic potential relative to positive controls.

SMILES | Ki (5-HT2A receptor) | Evidence of neurite outgrowth: Yes (+) or No (−) [1] | mean HTR (C57BL/6 mice) | HTR compared with the HTR response for 5-Br-DMT (one-way ANOVA, Dunnett) (C57BL/6 mice) | HTR (C57BL/6 mice; 10 mg/kg i.p. (maximum dose)) | HTR over increasing dosage (C57BL/6 mice; 0.5-10 mg/kg i.p., 0-15 min) | HTR (C57BL/6 mice; 7 mg/kg i.p.)
CN(C)CCc1c[nH]c2cc(N3CCCC3)cc(F)c12 [Compound (XVIII)] | 6.13 µM | + | 5.25 | not statistically significantly higher | > 20 |  | 
CC(C)N(C)CCc1c[nH]c2cc(N3CCOCC3)c(F)cc12 [Compound (XVII)] | 8.3 µM and 8.34 µM | + | 22.25 |  | ~40 |  | 
CN(C)CCc1c[nH]c2cc(F)cc(N3CCOCC3)c12 [Compound (XV)] | 0.72 µM | + | 5.0±0.82 | not statistically significantly higher |  | remains low | 
CN(C)CCc1c[nH]c2cc(N3CCC3)ccc12 [Compound (XII)] | 23.7 µM | + | 6.25 | not statistically significantly higher | ~12 |  | ~20
